We go through 10 molecules from ChEMBL document CHEMBL1201862, “PubChem BioAssay data set” (2004).

Structures are written as SMILES.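 Step 1: Grow cells in 96-well plates. Step 2: Expose to compound for 48 hours at 5 concentrations. Step 3: Interpolate endpoints linearly; if unreached, use highest concentration. GI50: concentration for 50% inhibition of growth.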 Active and inactive are the calls of the source. No stated cut-off is given here; in the data, active = GI50 up to about 1.1 µM and inactive = higher.

Some test systems named below: OVCAR-3; KM12; 786-0; NCI/ADR-RES; HCC 2998; HOP-92; LOX IMVI; MDA-MB-231; HCT-116; MDA-MB-435; SF-539; UO-31; SF-268; SN12C; SF-295; CAKI-1; T47D; IGROV-1; Hs-578T; SNB-75.
Experiment in all cases: NCI tumour cell line growth inhibition, 48 h

Take `COc1cc(/C=C\c2nnc(/C=C\c3ccc(O)c(OC)c3)s2)ccc1O`: the GI50 with OVCAR-3 is 1.91 µM (inactive); in the test on KM12 it was 2.2 µM (inactive); in the test on 786-0, 3.85 µM (inactive); with NCI/ADR-RES it was 1.6 µM (inactive); with HCC 2998 it was 3.48 µM (inactive); in the test on HOP-92, 4.79 µM (inactive). For the same molecule, the GI50 was 2.59 µM (inactive) with LOX IMVI; 4.94 µM (inactive) in the test with MDA-MB-231; 2.36 µM (inactive) with HCT-116; 0.495 µM (active) in the test with MDA-MB-435; 2.44 µM (inactive) in the test with SF-539; 3.47 µM (inactive) in the test with UO-31. Besides, the GI50 in the test with SF-268 was 4.06 µM (inactive); with SN12C, 4.31 µM (inactive); in the test with SF-295 it was 3.48 µM (inactive); with CAKI-1 it was 4.62 µM (inactive); in the test on T47D, 2.12 µM (inactive); with IGROV-1, 3.78 µM (inactive). Besides, the GI50 was 3.01 µM (inactive) with Hs-578T and 2.33 µM (inactive) with SNB-75.
As for `Cc1ccc([N+](=O)[O-])c2c(NCCNC(=O)c3cc(C(=O)NCCNc4ccnc5c(C)ccc([N+](=O)[O-])c45)n(C)n3)ccnc12`, the GI50 with OVCAR-3 was > 80.9 µM (inactive); in the test on KM12 it was > 100 µM (inactive); in the test with 786-0, > 56 µM (inactive); with NCI/ADR-RES it was > 100 µM (inactive); with HCC 2998, > 100 µM (inactive); with HOP-92, > 100 µM (inactive). The GI50 was > 44.7 µM (inactive) with LOX IMVI; > 54 µM (inactive) with MDA-MB-231; > 100 µM (inactive) in the test with HCT-116; > 41.6 µM (inactive) with MDA-MB-435; > 100 µM (inactive) in the test with SF-539; > 100 µM (inactive) in the test on UO-31. Besides, the GI50 with SF-268 was > 100 µM (inactive); in the test on SN12C, > 57.7 µM (inactive); in the test on SF-295 it was > 79.6 µM (inactive); with CAKI-1, 98.6 µM (inactive); with T47D it was > 77.8 µM (inactive); in the test on IGROV-1, > 100 µM (inactive). The GI50 in the test on Hs-578T was > 87.3 µM (inactive); in the test on SNB-75, 45.2 µM (inactive).
Take `CCN(CC)c1ccc2cc(C(=O)NCc3ccccc3)c(=N)oc2c1`: the GI50 in the test on OVCAR-3 was 15.6 µM (inactive); in the test with KM12, 8.93 µM (inactive); in the test with 786-0, > 62.1 µM (inactive); in the test on NCI/ADR-RES it was 0.912 µM (active); with HCC 2998, 40.4 µM (inactive); in the test with HOP-92 it was 22.1 µM (inactive). For the same molecule, the GI50 in the test on LOX IMVI is 4.7 µM (inactive); with MDA-MB-231, > 46.3 µM (inactive); with HCT-116 it was 39 µM (inactive); in the test with MDA-MB-435, 6.7 µM (inactive); with SF-539, 46.3 µM (inactive); in the test on UO-31, > 26.6 µM (inactive). The GI50 with SF-268 is > 79.6 µM (inactive); with SN12C, > 100 µM (inactive); with SF-295, 27.5 µM (inactive); in the test with CAKI-1 it was > 44.8 µM (inactive); with T47D it was 4.33 µM (inactive); with IGROV-1, 43.7 µM (inactive). Besides, the GI50 with Hs-578T is > 37.6 µM (inactive); with SNB-75 it was 37.3 µM (inactive).
Turning to `CCOC(=O)C1C(C)C2(C#N)C(=N)OC1(C)C2(C#N)C#N` (configuration not stated), the GI50 is > 100 µM (inactive) in the test with KM12; 66.7 µM (inactive) with 786-0; > 100 µM (inactive) in the test on NCI/ADR-RES; > 10 µM (inactive) with HCC 2998; 30.1 µM (inactive) in the test with HOP-92; 26.8 µM (inactive) in the test on LOX IMVI. Further, the GI50 was > 100 µM (inactive) with MDA-MB-231; 76.7 µM (inactive) with HCT-116; 65.9 µM (inactive) with MDA-MB-435; 47.2 µM (inactive) in the test with SF-539; 76.9 µM (inactive) with UO-31; 57.9 µM (inactive) in the test on SF-268. The GI50 in the test on SN12C was 64.9 µM (inactive); in the test with SF-295 it was > 100 µM (inactive); with CAKI-1, 53.6 µM (inactive); with T47D, 48.1 µM (inactive); in the test on IGROV-1 it was 39.2 µM (inactive); with Hs-578T, 40.9 µM (inactive). Also, the GI50 in the test on SNB-75 is 27.6 µM (inactive).
`N#CC(C#N)=C1CCCS(=O)(=O)c2ccccc21`: the GI50 in the test on OVCAR-3, in the test on KM12, with 786-0, in the test on NCI/ADR-RES, in the test on HCC 2998 and with HOP-92 was > 100 µM (inactive) in each case. Further, the GI50 in the test on LOX IMVI, in the test on MDA-MB-231, in the test with HCT-116, in the test on MDA-MB-435, with SF-539 and with UO-31 was > 100 µM (inactive) each time. Further, the GI50 in the test with SF-268, in the test on SN12C, with SF-295, in the test on CAKI-1, with T47D and in the test on IGROV-1 was > 100 µM (inactive) in each case. The GI50 in the test on Hs-578T and in the test on SNB-75 was > 100 µM (inactive) throughout.
Consider `CN(/N=C\c1ccc2ccccc2c1)C1=NCCCN1`, for which the GI50 is 18.9 µM (inactive) in the test with OVCAR-3; 15 µM (inactive) with KM12; 12.7 µM (inactive) in the test with 786-0; 19.5 µM (inactive) in the test with NCI/ADR-RES; 11.7 µM (inactive) with HCC 2998; 2.11 µM (inactive) with HOP-92. Moreover, the GI50 in the test on LOX IMVI is 7.41 µM (inactive); in the test on MDA-MB-231 it was 15.6 µM (inactive); with HCT-116, 13.8 µM (inactive); in the test on MDA-MB-435 it was 15.2 µM (inactive); in the test with SF-539 it was 19.8 µM (inactive); in the test with UO-31, 9.93 µM (inactive). In addition, the GI50 is 13.8 µM (inactive) in the test with SF-268; 11.9 µM (inactive) in the test with SF-295; 4.88 µM (inactive) in the test on CAKI-1; 22.6 µM (inactive) in the test on T47D; 4.56 µM (inactive) in the test with IGROV-1; 10.7 µM (inactive) in the test with Hs-578T. Besides, the GI50 in the test on SNB-75 was 13.3 µM (inactive).
As to `O=C(O)CN1CCN(CC(=O)N2CCN(C(=O)OCc3ccccc3)CC2)CCN(CC(=O)O)CCN(CC(=O)N2CCN(C(=O)OCc3ccccc3)CC2)CC1`, the GI50 with OVCAR-3, in the test on KM12, with 786-0, in the test with NCI/ADR-RES, with HCC 2998 and in the test on HOP-92 was > 100 µM (inactive) each time. Besides, the GI50 in the test with LOX IMVI, in the test with MDA-MB-231, with HCT-116, in the test on MDA-MB-435, with SF-539 and in the test with UO-31 was > 100 µM (inactive) throughout. Moreover, the GI50 in the test with SN12C, in the test with SF-295, in the test on CAKI-1, with T47D, with IGROV-1 and with Hs-578T was > 100 µM (inactive) in each case. In addition, the GI50 in the test with SNB-75 was > 100 µM (inactive).
As for `Cc1ccc([S+]([O-])CC(CF)OCn2cc(C)c(=O)[nH]c2=O)cc1` (configuration not stated), the GI50 in the test on OVCAR-3, in the test with KM12, in the test on 786-0, with NCI/ADR-RES, in the test on HCC 2998 and in the test on HOP-92 was > 100 µM (inactive) in each case. The GI50 in the test on LOX IMVI, with MDA-MB-231, in the test on HCT-116, in the test on MDA-MB-435, in the test on SF-539 and in the test with UO-31 was > 100 µM (inactive) throughout. For the same molecule, the GI50 in the test with SF-268, in the test with SN12C, in the test with SF-295, in the test on CAKI-1, in the test on T47D and in the test on IGROV-1 was > 100 µM (inactive) throughout. Besides, the GI50 with Hs-578T and in the test with SNB-75 was > 100 µM (inactive) each time.
Turning to `O=c1[nH]nc(Cc2ccccc2)n1/N=C/c1ccc([N+](=O)[O-])o1`, the GI50 in the test with OVCAR-3 is 0.292 µM (active); with KM12, 2.15 µM (inactive); in the test on 786-0, 2.76 µM (inactive); in the test with NCI/ADR-RES, 2.75 µM (inactive); in the test with HCC 2998, 3.99 µM (inactive); with HOP-92, 3.03 µM (inactive). The GI50 in the test on LOX IMVI was 0.659 µM (active); in the test on MDA-MB-231, 3.38 µM (inactive); with HCT-116 it was 2.06 µM (inactive); with MDA-MB-435 it was 1.57 µM (inactive); in the test with SF-539, 2.11 µM (inactive); in the test with UO-31 it was 4.47 µM (inactive). Further, the GI50 with SF-268 is 2.59 µM (inactive); in the test on SN12C, 3.31 µM (inactive); in the test on SF-295, 7.62 µM (inactive); in the test on CAKI-1, 3.11 µM (inactive); in the test with T47D it was 6.7 µM (inactive); in the test with IGROV-1 it was 2.67 µM (inactive). Also, the GI50 in the test with Hs-578T was 1 µM (active); in the test on SNB-75 it was 3.3 µM (inactive).
Consider `COc1ccc(/C=C/C(=O)c2ccc(OC(=O)/C=C/c3ccccc3)cc2)cc1`, for which the GI50 in the test with OVCAR-3 is 32 µM (inactive); in the test on KM12 it was 8.97 µM (inactive); in the test on 786-0, 17 µM (inactive); in the test with NCI/ADR-RES, 31.2 µM (inactive); in the test on HCC 2998, 16.2 µM (inactive); with HOP-92, 44.5 µM (inactive). Also, the GI50 in the test on LOX IMVI was 16.7 µM (inactive); in the test on MDA-MB-231, 27.5 µM (inactive); with HCT-116, 18.7 µM (inactive); with MDA-MB-435, 7.73 µM (inactive); in the test on SF-539, 11.5 µM (inactive); in the test with UO-31, 22.7 µM (inactive). In addition, the GI50 with SF-268 was 25 µM (inactive); with SN12C, 26.6 µM (inactive); in the test with SF-295, 25.1 µM (inactive); in the test with CAKI-1 it was 23.3 µM (inactive); in the test with T47D, 23.9 µM (inactive); with IGROV-1 it was 18.9 µM (inactive). Further, the GI50 was 36 µM (inactive) in the test with Hs-578T and 28.9 µM (inactive) in the test on SNB-75.
